Test results reported in US9061984B2 (University of Louisville Research Foundation, Inc., priority 2008, dated 2015).
Converted amounts (≈) assume the structure as drawn. Where two headings read alike, the source gives them in different places.

How the values were obtained:
3T3 cells = assay: Cell growth inhibition bioassay (sulforhodamine B); format: cell-based, mouse; settings: Mus musculus, NIH3T3; 48 h, SRB; read-out: GI50 in indicated cell line: 3T3
Method in brief: (§1)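 Cells were exposed to compound alongside matched solvent controls, then stained with sulforhodamine B. Percent growth inhibition was calculated from dye absorbance against the control.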

DU145 cells = assay: Cell growth inhibition bioassay (sulforhodamine B); format: cell-based, human; settings: Homo sapiens, DU-145; 48 h, SRB; read-out: GI50 in indicated cell line: DU145
Method in brief: (§2)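 SRB colorimetric read-out; % growth inhibition vs solvent control. Human lines: MCF-7 (breast adenocarcinoma), DU145 (prostate carcinoma), PC3 (prostate adenocarcinoma), H460 (large cell lung cancer).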

H460 cells = assay: Cell growth inhibition bioassay (sulforhodamine B); format: cell-based, human; settings: Homo sapiens, NCI-H460; 48 h, SRB; read-out: GI50 in indicated cell line: H460
Method in brief: as §2

HT-29 cells = assay: Cell growth inhibition bioassay (sulforhodamine B); format: cell-based, human; settings: Homo sapiens, HT-29; 48 h, SRB; read-out: GI50 in indicated cell line: HT-29
Method in brief: as §1

K562 cells = assay: Cell growth inhibition bioassay (sulforhodamine B); format: cell-based, human; settings: Homo sapiens, K562; 48 h, SRB; read-out: GI50 in indicated cell line: K562
Method in brief: as §1

M-14 cells = assay: Cell growth inhibition bioassay (sulforhodamine B); format: cell-based, human; settings: Homo sapiens, M14; 48 h, SRB; read-out: GI50 in indicated cell line: M-14
Method in brief: as §1

MCF-7 cells = assay: Cell growth inhibition bioassay (sulforhodamine B); format: cell-based, human; settings: Homo sapiens, MCF7; 48 h, SRB; read-out: GI50 in indicated cell line: MCF-7
Method in brief: as §2

VERO cells = assay: Cell growth inhibition bioassay (sulforhodamine B); format: cell-based, African Green Monkey; settings: Chlorocebus sabaeus, Vero; 48 h, SRB; read-out: GI50 in indicated cell line: VERO
Method in brief: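 Cytotoxicity is read by sulforhodamine B colorimetry following the Skehan protocol; values are growth inhibition relative to solvent-only wells.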

[1] = test system: Trypanosoma cruzi (Tulahuen C4); assay: In vitro anti-T. cruzi activity (β-galactosidase CPRG colorimetric assay in VERO monolayer); format: cell-based; settings: for Selectivity Index Lab B: IC50, VERO/IC50, T. cruzi; for IC50: Trypanosoma cruzi, TULAHUEN, Vero
M. tuberculosis H37Rv = assay: Conventional aerobic (MABA) culture assay, luminescence MIC; format: cell-based, Mycobacterium tuberculosis; settings: for MIC: Mycobacterium tuberculosis, 168 h, aerobic, 7 days, H37Rv; for Selectivity Index H37Rv: VERO vs MABA MIC
[2] = Toxicity to peritoneal macrophages (Trypan Blue count); format: cell-based, BALB/C mouse; settings: BALB/C, mouse, Cytotoxicity Macrophages IC50
[3] = test system: axenic amastigotes of L. amazonensis (strain MHOM/BR/76/LTB-012); settings: Table 8b
[4] = test system: axenic amastigotes of L. amazonensis (strain MHOM/BR/76/LTB-012); assay: microbe, parasite or virus in culture; settings: Leishmania amazonensis
[5] = Cytotoxicity on VERO cells (MTT), anti-T. cruzi study; settings: African green monkey, VERO cells, Cytotoxicity VERO Lab B, Lab B
L. braziliensis PER006 = assay: Activity against macrophages infected with Leishmania amastigotes; settings: Leishmania braziliensis, Macrophage, read-out: IC50 L. braziliensis PER006
L. peruviana LCA08 = assay: as above; settings: Leishmania peruviana, Macrophage, read-out: IC50 L. peruviana LCA08
peritoneal macrophages = assay: Toxicity to peritoneal macrophages (Trypan Blue count); format: cell-based, BALB/C mouse; settings: Mus musculus, Peritoneal macrophage, 48 h; Table 7; read-out: IC50 Macrophage
L. amazonensis = settings: for Mean lesion size (mm) / Mean parasite quantification (per 10^6) in lesion per mg (±SD) / Mean lesion wt (mg) (±SD) / % Variation of lesion wt / % reduction of parasite burden in the lesion: Glucantime 33 mg Sb(v)/kg/day; for Mean lesion wt (mg) (±SD): BALB/c mice n=10; for % Variation of lesion wt / % reduction of parasite burden in the lesion: vs control
L. amazonensis Lma CL1 = assay: Activity against macrophages infected with Leishmania amastigotes; settings: Leishmania amazonensis, Macrophage, 48 h, read-out: IC50 L. amazonensis Lma CL1
[6] = Cytotoxicity VERO cell (Table 6); settings: African green monkey, VERO cells
[7] = Lab A, read-out: T. cruzi IC50 Lab A
[8] = Lab B, read-out: T. cruzi IC50 Lab B
[9] = after 4 weeks treatment, intralesional, compounds 5 mg/kg/day
[10] = after 7 weeks treatment, intralesional, compounds 5 mg/kg/day

| SMILES | GI50 (3T3 cells) [µg/mL] | GI50 (DU145 cells) [µg/mL] | GI50 (H460 cells) [µg/mL] | GI50 (HT-29 cells) [µg/mL] | GI50 (K562 cells) [µg/mL] | GI50 (M-14 cells) [µg/mL] | GI50 (MCF-7 cells) [µg/mL] | GI50 (VERO cells) [µg/mL] | Selectivity Index Lab B ([1]; Lab B) | IC50 [1, 7] [µg/mL] | IC50 [1, 8] [µg/mL] | MIC (M. tuberculosis H37Rv) [µg/mL] | IC50 at 48 h [2] [µM] | Selectivity Index [3] | IC50 ([4]; read-out: L. amazonensis IC50) [µM] | IC50 [5] [µg/mL] | IC50 (L. braziliensis PER006) [µg/mL] | IC50 (L. peruviana LCA08) [µg/mL] | Selectivity Index H37Rv (M. tuberculosis H37Rv) | IC50 [6] [µg/mL] | other results |
| --- | --- | --- | --- | --- | --- | --- | --- | --- | --- | --- | --- | --- | --- | --- | --- | --- | --- | --- | --- | --- | --- |
| Brc1ccc(/C=N\Nc2ncnc3sc4c(c23)CCCC4)cc1 [II-30] | 6.8 (≈ 17.6 µM) | 5.6 (≈ 14.5 µM) | 4.1 (≈ 10.6 µM) | 4.8 (≈ 12.4 µM) | 2.2 (≈ 5.68 µM) | 13 (≈ 33.6 µM) | 2.3 (≈ 5.94 µM) | 2.8 (≈ 7.23 µM) | 0.8 | 1.1 (≈ 2.84 µM) | 7.9 (≈ 20.4 µM) | > 100 | 3 | 8.8 | 0.3 | 6 (≈ 15.5 µM) | > 0.5 | > 0.5 | – | – | – |
| C=CCOc1cc(/C=C/C(=O)c2c(O)cc(O)cc2OC)cc(OCC=C)c1Br [Compound I-42, (2E)-3-(3,5-Bis(2-propenyloxy)-4-bromophenyl)-1-(2,4-dihydroxy-6-methoxyphenyl)-2-propen-1-one] | – | – | – | – | – | – | – | – | – | – | – | – | – | – | – | – | – | – | – | – | IC50 (peritoneal macrophages): 11.5 µM; Reduction of parasite burden (column After 7 weeks, analyzed after 6 weeks treatment) (L. amazonensis; 5 mg/kg/day intralesional, after 6 weeks treatment (footnote d)): 8^d %; Lesion diameter (L. amazonensis; compounds 5 mg/kg/day, Glucantime 33 mg/kg/day, intralesional): 4.6 mm; Reduction of parasite burden After 4 weeks (L. amazonensis; compounds 5 mg/kg/day, Glucantime 33 mg/kg/day, intralesional, after 4 weeks): 9%; IC50 ([4]; 72 h, read-out: IC50 L. amazonensis): 1.1 µM; IC50 (L. amazonensis Lma CL1): 4.1 µM; IC50 (L. braziliensis PER006; 48 h): 14.4 µM |
| Clc1ccccc1/C=N\Nc1ncnc2sc3c(c12)CCCC3 [II-29] | 30.2 (≈ 88.1 µM) | 26.7 (≈ 77.9 µM) | 21.6 (≈ 63 µM) | 19.4 (≈ 56.6 µM) | 6.8 (≈ 19.8 µM) | > 62.5 | 7.5 (≈ 21.9 µM) | 9.9 (≈ 28.9 µM) | 0.7 | – | 7.3 (≈ 21.3 µM) | 42.6 (≈ 124 µM) | 3.8 | 5.0 | 0.8 | 5 (≈ 14.6 µM) | – | – | 0.7 | 29.3 (≈ 85.5 µM) | – |
| CCC(CC)=NNc1ncnc2sc3c(c12)CCCC3 [II-48] | 1.4 (≈ 4.85 µM) | 4.3 (≈ 14.9 µM) | 4.4 (≈ 15.3 µM) | 11.2 (≈ 38.8 µM) | 3.3 (≈ 11.4 µM) | 5.9 (≈ 20.5 µM) | 4.4 (≈ 15.3 µM) | 7.4 (≈ 25.7 µM) | 1.0 | 4.8 (≈ 16.6 µM) | 6 (≈ 20.8 µM) | 46.2 (≈ 160 µM) | 46.7 | 8.5 | 5.5 | 6 (≈ 20.8 µM) | 3.2 | 2 (≈ 6.93 µM) | 0.7 | 32.9 (≈ 114 µM) | Mean lesion size (mm) (L. amazonensis; [9]): 2.8 mm; Mean parasite quantification (per 10^6) in lesion per mg (±SD) (L. amazonensis; [9]): 0.60 (±0.44) amastigotes (×10^6)/mg; Mean lesion wt (mg) (±SD) (L. amazonensis; [9]): 38.2 (±11.4) mg; % Variation of lesion wt (L. amazonensis; [9]): 37%; % reduction of parasite burden in the lesion (L. amazonensis; [9]): 65%; Mean lesion size (mm) (L. amazonensis; [10]): 4.9 mm; Mean parasite quantification (per 10^6) in lesion per mg (±SD) (L. amazonensis; [10]): 1.53 (±0.18) amastigotes (×10^6)/mg; Mean lesion wt (mg) (±SD) (L. amazonensis; [10]): 85.0 (±4.5) mg; % Variation of lesion wt (L. amazonensis; [10]): 5%; % reduction of parasite burden in the lesion (L. amazonensis; [10]): 17% |
| C(=N/Nc1ncnc2sc3c(c12)CCCC3)/c1ccc[nH]1 [II-19] | 0.7 (≈ 2.35 µM) | 1.4 (≈ 4.71 µM) | 0.5 (≈ 1.68 µM) | 1.1 (≈ 3.7 µM) | 0.6 (≈ 2.02 µM) | 0.7 (≈ 2.35 µM) | 0.1 (≈ 0.336 µM) | 0.6 (≈ 2.02 µM) | 0.1 | 0.6 (≈ 2.02 µM) | 6.8 (≈ 22.9 µM) | 6.2 (≈ 20.8 µM) | 2.9 | 1.0 | 3 | 1 (≈ 3.36 µM) | – | – | 0.7 | 4 (≈ 13.5 µM) | – |
